# Measurements published in publication PMC6979384, “Characterization of the plant homeodomain (PHD) reader family for their histone tail interactions” (Epigenetics & Chromatin, 2020).
# How the values were obtained:
# Experiment in all cases: Histone peptide microarray
# Format in all cases: binding, human
# MORC3 (CW) = conditions: GST-tagged MORC3 (CW = CW-type Zn-finger); for Array Heatmap signal (histone peptide microarray): sheet Array Heatmap, each array performed twice, total n = 4
# How it was run: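 GST-tagged PHD readers, 0.5 μM, probed on a microarray of 293 synthetic histone peptides carrying single or combinatorial PTMs (optimized Petell protocol). Signals are averaged over 4 replicates and expressed as relative binding.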
# TRIM66 (PB) = conditions: GST-tagged TRIM66 (PB = PHD + Bromodomain); for Array Heatmap signal (histone peptide microarray): sheet Array Heatmap, each array performed twice, total n = 4
# How it was run: (§1)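 Steps: express and purify GST-tagged PHD reader; incubate 0.5 μM protein on a peptide microarray (293 histone peptides, single or combined PTMs) following an optimized protocol; average signal across 4 replicates.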
# BAZ2B = conditions: GST-tagged BAZ2B; for Array Heatmap signal (histone peptide microarray): sheet Array Heatmap, each array performed twice, total n = 4
# How it was run: as §1
# PHF2 = conditions: GST-tagged PHF2; for Array Heatmap signal (histone peptide microarray): sheet Array Heatmap, each array performed twice, total n = 4
# How it was run: as §1
# CHD5 (PPCC) = conditions: GST-tagged CHD5 (PPCC = Dual PHD + Dual Chromodomain); for Array Heatmap signal (histone peptide microarray): sheet Array Heatmap, each array performed twice, total n = 4
# How it was run: as §1
# CHD5 (PCC) = conditions: GST-tagged CHD5 (PCC = PHD + Dual Chromodomain); for Array Heatmap signal (histone peptide microarray): sheet Array Heatmap, each array performed twice, total n = 4
# How it was run: as §1
# PHF8 = conditions: GST-tagged PHF8; for Array Heatmap signal (histone peptide microarray): sheet Array Heatmap, each array performed twice, total n = 4
# How it was run: as §1
# KDM7A = conditions: GST-tagged KDM7A; for Array Heatmap signal (histone peptide microarray): sheet Array Heatmap, each array performed twice, total n = 4
# How it was run: as §1
# MLL5 = conditions: GST-tagged MLL5; for Array Heatmap signal (histone peptide microarray): sheet Array Heatmap, each array performed twice, total n = 4
# How it was run: as §1
# TAF3 = conditions: GST-tagged TAF3; for Array Heatmap signal (histone peptide microarray): sheet Array Heatmap, each array performed twice, total n = 4
# How it was run: as §1
# PHRF1 (RP) = conditions: GST-tagged PHRF1 (RP); for Array Heatmap signal (histone peptide microarray): sheet Array Heatmap, each array performed twice, total n = 4
# How it was run: as §1
# CHD4 (PPCC) = conditions: GST-tagged CHD4 (PPCC = Dual PHD + Dual Chromodomain); for Array Heatmap signal (histone peptide microarray): sheet Array Heatmap, each array performed twice, total n = 4
# How it was run: as §1
# ING5 = conditions: GST-tagged ING5; for Array Heatmap signal (histone peptide microarray): sheet Array Heatmap, each array performed twice, total n = 4
# How it was run: as §1
# KDM5B (3) = conditions: GST-tagged KDM5B (3); for Array Heatmap signal (histone peptide microarray): sheet Array Heatmap, each array performed twice, total n = 4
# How it was run: as §1
# DPF2 (PPC2W2) = conditions: GST-tagged DPF2 (PPC2W2 = Dual PHD + C2W2-type Zn-finger); for Array Heatmap signal (histone peptide microarray): sheet Array Heatmap, each array performed twice, total n = 4
# How it was run: as §1
# SP140L = conditions: GST-tagged SP140L; for Array Heatmap signal (histone peptide microarray): sheet Array Heatmap, each array performed twice, total n = 4
# How it was run: as §1
# RAG2 = conditions: GST-tagged RAG2; for Array Heatmap signal (histone peptide microarray): sheet Array Heatmap, each array performed twice, total n = 4
# How it was run: as §1
# KDM5A (3) = conditions: GST-tagged KDM5A (3); for Array Heatmap signal (histone peptide microarray): sheet Array Heatmap, each array performed twice, total n = 4
# How it was run: as §1
# ING2 = conditions: GST-tagged ING2; for Array Heatmap signal (histone peptide microarray): sheet Array Heatmap, each array performed twice, total n = 4
# How it was run: as §1
# PHF13 = conditions: GST-tagged PHF13; for Array Heatmap signal (histone peptide microarray): sheet Array Heatmap, each array performed twice, total n = 4
# How it was run: as §1
# PHF23 = conditions: GST-tagged PHF23; for Array Heatmap signal (histone peptide microarray): sheet Array Heatmap, each array performed twice, total n = 4
# How it was run: as §1
# AIRE (PP) = conditions: GST-tagged AIRE (PP); for Array Heatmap signal (histone peptide microarray): sheet Array Heatmap, each array performed twice, total n = 4
# How it was run: as §1
# PHF21A = conditions: GST-tagged PHF21A; for Array Heatmap signal (histone peptide microarray): sheet Array Heatmap, each array performed twice, total n = 4
# How it was run: as §1
# KDM5A (1) = conditions: GST-tagged KDM5A (1); for Array Heatmap signal (histone peptide microarray): sheet Array Heatmap, each array performed twice, total n = 4
# How it was run: as §1
# DIDO1 = conditions: GST-tagged DIDO1; for Array Heatmap signal (histone peptide microarray): sheet Array Heatmap, each array performed twice, total n = 4
# How it was run: as §1
# ING1 = conditions: GST-tagged ING1; for Array Heatmap signal (histone peptide microarray): sheet Array Heatmap, each array performed twice, total n = 4
# How it was run: as §1
# KDM5B (1) = conditions: GST-tagged KDM5B (1); for Array Heatmap signal (histone peptide microarray): sheet Array Heatmap, each array performed twice, total n = 4
# How it was run: as §1
# KDM4C (TTP) = conditions: GST-tagged KDM4C (TTP = Tandem Tudor domain + PHD); for Array Heatmap signal (histone peptide microarray): sheet Array Heatmap, each array performed twice, total n = 4
# How it was run: as §1
# ING3 = conditions: GST-tagged ING3; for Array Heatmap signal (histone peptide microarray): sheet Array Heatmap, each array performed twice, total n = 4
# How it was run: as §1
# ING4 = conditions: GST-tagged ING4; for Array Heatmap signal (histone peptide microarray): sheet Array Heatmap, each array performed twice, total n = 4
# How it was run: as §1
# BPTF (PB) = conditions: GST-tagged BPTF (PB = PHD + Bromodomain); for Array Heatmap signal (histone peptide microarray): sheet Array Heatmap, each array performed twice, total n = 4
# How it was run: as §1
# [1] = histone peptide array, arrays performed twice, n of 4
substance,measurement,setting,value
H3R2me2a + T3p + K4me3: H3 1-20,Array Heatmap signal (histone peptide microarray),MORC3 (CW),0.479
same,Array Heatmap signal (histone peptide microarray),TRIM66 (PB),0.6445
same,Array Heatmap signal (histone peptide microarray),BAZ2B,0.443
same,Array Heatmap signal (histone peptide microarray),PHF2,0.6351
same,Array Heatmap signal (histone peptide microarray),CHD5 (PPCC),0.5403
same,Array Heatmap signal (histone peptide microarray),CHD5 (PCC),0.7634
same,Array Heatmap signal (histone peptide microarray),PHF8,0.3942
same,Array Heatmap signal (histone peptide microarray),KDM7A,0.3305
same,Array Heatmap signal (histone peptide microarray),MLL5,0.5468
same,Array Heatmap signal (histone peptide microarray),TAF3,0.272
same,Array Heatmap signal (histone peptide microarray),PHRF1 (RP),0.4955
same,Array Heatmap signal (histone peptide microarray),CHD4 (PPCC),0.6044
same,Array Heatmap signal (histone peptide microarray),ING5,0.3525
same,Array Heatmap signal (histone peptide microarray),KDM5B (3),0.5351
same,Array Heatmap signal (histone peptide microarray),DPF2 (PPC2W2),0.687
same,Array Heatmap signal (histone peptide microarray),SP140L,0.3541
same,Array Heatmap signal (histone peptide microarray),RAG2,0.2527
same,Array Heatmap signal (histone peptide microarray),KDM5A (3),0.5129
same,Array Heatmap signal (histone peptide microarray),ING2,0.5913
same,Array Heatmap signal (histone peptide microarray),PHF13,0.6175
same,Array Heatmap signal (histone peptide microarray),PHF23,0.5238
same,Array Heatmap signal (histone peptide microarray),AIRE (PP),0.4234
same,Array Heatmap signal (histone peptide microarray),PHF21A,0.4298
same,Array Heatmap signal (histone peptide microarray),KDM5A (1),0.4435
same,Array Heatmap signal (histone peptide microarray),DIDO1,0.7496
same,Array Heatmap signal (histone peptide microarray),ING1,0.5674
same,Array Heatmap signal (histone peptide microarray),KDM5B (1),0.6049
same,Array Heatmap signal (histone peptide microarray),KDM4C (TTP),0.4695
same,Array Heatmap signal (histone peptide microarray),ING3,0.4974
same,Array Heatmap signal (histone peptide microarray),ING4,0.4572
same,Array Heatmap signal (histone peptide microarray),BPTF (PB),0.3598
H3R2me2a: H3 1-20 [Peptide H3R2me2a],Array Heatmap signal (histone peptide microarray),MORC3 (CW),0.4345
same,Array Heatmap signal (histone peptide microarray),TRIM66 (PB),0.568
same,Array Heatmap signal (histone peptide microarray),BAZ2B,0.4186
same,Array Heatmap signal (histone peptide microarray),PHF2,0.5486
same,Array Heatmap signal (histone peptide microarray),CHD5 (PPCC),0.5177
same,Array Heatmap signal (histone peptide microarray),CHD5 (PCC),0.7924
same,Array Heatmap signal (histone peptide microarray),PHF8,0.3491
same,Array Heatmap signal (histone peptide microarray),KDM7A,0.3073
same,Array Heatmap signal (histone peptide microarray),MLL5,0.5223
same,Array Heatmap signal (histone peptide microarray),TAF3,0.2736
same,Array Heatmap signal (histone peptide microarray),PHRF1 (RP),0.516
same,Array Heatmap signal (histone peptide microarray),CHD4 (PPCC),0.6459
same,Array Heatmap signal (histone peptide microarray),ING5,0.3271
same,Array Heatmap signal (histone peptide microarray),KDM5B (3),0.4682
same,Array Heatmap signal (histone peptide microarray),DPF2 (PPC2W2),0.6507
same,Array Heatmap signal (histone peptide microarray),SP140L,0.3569
same,Array Heatmap signal (histone peptide microarray),RAG2,0.2465
same,Array Heatmap signal (histone peptide microarray),KDM5A (3),0.4981
same,Array Heatmap signal (histone peptide microarray),ING2,0.6004
same,Array Heatmap signal (histone peptide microarray),PHF13,0.5929
same,Array Heatmap signal (histone peptide microarray),PHF23,0.5039
same,Array Heatmap signal (histone peptide microarray),AIRE (PP),0.3953
same,Array Heatmap signal (histone peptide microarray),PHF21A,0.4684
same,Array Heatmap signal (histone peptide microarray),KDM5A (1),0.4227
same,Array Heatmap signal (histone peptide microarray),DIDO1,0.6992
same,Array Heatmap signal (histone peptide microarray),ING1,0.5498
same,Array Heatmap signal (histone peptide microarray),KDM5B (1),0.5237
same,Array Heatmap signal (histone peptide microarray),KDM4C (TTP),0.4374
same,Array Heatmap signal (histone peptide microarray),ING3,0.4743
same,Array Heatmap signal (histone peptide microarray),ING4,0.442
same,Array Heatmap signal (histone peptide microarray),BPTF (PB),0.3326
H3R2me2s + K4me2: H3 1-20,"Array Heatmap signal, MORC3 (CW)",MORC3 (CW); [1],0.7987
same,"Array Heatmap signal, TRIM66 (PB)",TRIM66 (PB); [1],0.6465
same,"Array Heatmap signal, BAZ2B",BAZ2B; [1],0.454
same,"Array Heatmap signal, PHF2",PHF2; [1],0.597
same,"Array Heatmap signal, CHD5 (PPCC)",CHD5 (PPCC); [1],0.5636
same,"Array Heatmap signal, CHD5 (PCC)",CHD5 (PCC); [1],0.8074
same,"Array Heatmap signal, PHF8",PHF8; [1],0.5813
same,"Array Heatmap signal, KDM7A",KDM7A; [1],0.4256
same,"Array Heatmap signal, MLL5",MLL5; [1],0.5794
same,"Array Heatmap signal, TAF3",TAF3; [1],0.4
same,"Array Heatmap signal, PHRF1 (RP)",PHRF1 (RP); [1],0.4714
same,"Array Heatmap signal, CHD4 (PPCC)",CHD4 (PPCC); [1],0.5835
same,"Array Heatmap signal, ING5",ING5; [1],0.3606
same,"Array Heatmap signal, KDM5B (3)",KDM5B (3); [1],0.725
same,"Array Heatmap signal, DPF2 (PPC2W2)",DPF2 (PPC2W2); [1],0.6255
same,"Array Heatmap signal, SP140L",SP140L; [1],0.3393
same,"Array Heatmap signal, RAG2",RAG2; [1],0.4992
same,"Array Heatmap signal, KDM5A (3)",KDM5A (3); [1],0.7167
same,"Array Heatmap signal, ING2",ING2; [1],0.6563
same,"Array Heatmap signal, PHF13",PHF13; [1],0.6897
same,"Array Heatmap signal, PHF23",PHF23; [1],0.6298
same,"Array Heatmap signal, AIRE (PP)",AIRE (PP); [1],0.4691
same,"Array Heatmap signal, PHF21A",PHF21A; [1],0.4639
same,"Array Heatmap signal, KDM5A (1)",KDM5A (1); [1],0.4761
same,"Array Heatmap signal, DIDO1",DIDO1; [1],0.7352
same,"Array Heatmap signal, ING1",ING1; [1],0.5374
same,"Array Heatmap signal, KDM5B (1)",KDM5B (1); [1],0.7544
same,"Array Heatmap signal, KDM4C (TTP)",KDM4C (TTP); [1],0.5629
same,"Array Heatmap signal, ING3",ING3; [1],0.5515
same,"Array Heatmap signal, ING4",ING4; [1],0.4666
same,"Array Heatmap signal, BPTF (PB)",BPTF (PB); [1],0.3673
